The text below walks through data of patent US20220101973A1, “PERSONALIZED TREATMENT TOOL” (Roche Diabetes Care, Inc., priority 2018, published 2022).

Data set [1] has as its system type 2 diabetes patients. The data set can be described thus: Hyperglycemia Efficacy Index (HEI) of diabetes drugs, from review of phase III trials with 7- or 8-point SMBG. In kind it is in vivo, human. The conditions noted are these: median ratio of effect on FBG vs effect on PPG; drugs from the same class have the same HEI. An excerpt:
Such results can be e.g. assessed via scientific publications or regulatory documents which disclose the results for the trials. Suitable scientific publications describing such trials for individual drugs can be, e.g., identified via PubMed. In an embodiment, the trials have assessed large cohorts of diabetes patients such as type 2 diabetes patients and report 7- or 8 point self-monitoring blood glucose data with determinations carried out in the fasting state, in the pre-prandial state and in the post-prandial state. In an embodiment, the trials include only type 2 diabetes patients without major comorbidities.
For establishing the database, the published information on the effects under (d1), (d2), and the risk under (d4) shall be taken into account. The indices under (d3), can be determined based on the published information for the analyzed trials.
In an embodiment, the Hyperglycemia Efficacy Index (HEI) for a drug is the ratio of the effect of said drug on fasting glucose to the effect of said drug on post-prandial glucose (i.e. the effect under (d1) and the effect under (d2)).

Data set [2] has as its system type 2 diabetes patients. To be noted: cited from earlier work.

“Also recorded” adds a separate entry of the source. Where two headings read alike, the source gives them in different places.

On to `C[C@H]1O[C@H](O[C@H]2[C@H](O)[C@@H](O)[C@@H](O[C@H]3[C@H](O)[C@@H](O)C(O)O[C@@H]3CO)O[C@@H]2CO)[C@H](O)[C@@H](O)[C@@H]1N[C@H]1C=C(CO)[C@@H](O)[C@H](O)[C@H]1O` (stereo partly drawn) [Acarbose], for which the “Hyperglycemia Efficacy Index (HEI)” value in data set [1] was “HEI 0.54”. The “Hypo Risk Index (HRI)” value in data set [2] (30 mg) and in data set [2] (300 mg) was “HRI 1 - low” each time.

Consider `Cc1ccc([C@@H]2O[C@H](CO)[C@@H](O)[C@H](O)[C@H]2O)cc1Cc1ccc(-c2ccc(F)cc2)s1` [Canagliflozin], for which the “Hypo Risk Index (HRI)” value in data set [2] (100 mg) and in data set [2] (300 mg) was “HRI 1 - low” in each case. As to `CCOc1ccc(Cc2cc([C@@H]3O[C@H](CO)[C@@H](O)[C@H](O)[C@H]3O)ccc2Cl)cc1` [Dapagliflozin], in data set [2] (10 mg), the “Hypo Risk Index (HRI)” value was “HRI 1 - low”. Take `OC[C@H]1O[C@@H](c2ccc(Cl)c(Cc3ccc(O[C@H]4CCOC4)cc3)c2)[C@H](O)[C@@H](O)[C@@H]1O` [Empagliflozin]: in data set [1], the “Hyperglycemia Efficacy Index (HEI)” value is recorded as “HEI 0.56”. Besides, the “Hypo Risk Index (HRI)” value in data set [2] (10 mg) and in data set [2] (25 mg) was “HRI 1 - low” throughout.

As to `Cc1ccc(S(=O)(=O)NC(=O)NN2CC3CCCC3C2)cc1` (stereo not drawn) [Gliclazide], in data set [2] (80-320 mg), the “Hypo Risk Index (HRI)” value was “HRI 2 - moderate; also recorded: HRI 2 - medium”. In the case of `CCC1=C(C)CN(C(=O)NCCc2ccc(S(=O)(=O)NC(=O)N[C@H]3CC[C@H](C)CC3)cc2)C1=O` [Glimepiride], in data set [2] (1-8 mg), the “Hypo Risk Index (HRI)” value is “HRI 2 - moderate; also recorded: HRI 2 - medium”. In the case of `CCCCCCCCCCCCCCCC(=O)N[C@@H](CCC(=O)NCCCC[C@H](NC(=O)[C@H](C)NC(=O)[C@H](C)NC(=O)[C@H](CCC(N)=O)NC(=O)CNC(=O)[C@H](CCC(=O)O)NC(=O)[C@H](CC(C)C)NC(=O)[C@H](Cc1ccc(O)cc1)NC(=O)[C@H](CO)NC(=O)[C@H](CO)NC(=O)[C@@H](NC(=O)[C@H](CC(=O)O)NC(=O)[C@H](CO)NC(=O)[C@@H](NC(=O)[C@H](Cc1ccccc1)NC(=O)[C@@H](NC(=O)CNC(=O)[C@H](CCC(=O)O)NC(=O)[C@H](C)NC(=O)[C@@H](N)Cc1cnc[nH]1)[C@@H](C)O)[C@@H](C)O)C(C)C)C(=O)N[C@@H](CCC(=O)O)C(=O)N[C@@H](Cc1ccccc1)C(=O)N[C@H](C(=O)N[C@@H](C)C(=O)N[C@@H](Cc1c[nH]c2ccccc12)C(=O)N[C@@H](CC(C)C)C(=O)N[C@H](C(=O)N[C@@H](CCCNC(=N)N)C(=O)NCC(=O)N[C@@H](CCCNC(=N)N)C(=O)NCC(=O)O)C(C)C)[C@@H](C)CC)C(=O)O` [Liraglutide], the “Hypo Risk Index (HRI)” value in data set [2] (1.2 mg) and in data set [2] (1.8 mg) was “HRI 1 - low” in each case. Consider `CN(C)C(=N)N=C(N)N` [Metformin], for which the “Hyperglycemia Efficacy Index (HEI)” value in data set [1] is listed as “HEI 0.59”. Moreover, in data set [2] (≥1000 mg), the “Hypo Risk Index (HRI)” value is reported as “HRI 1 - low”. Take `CCOc1cc(CC(=O)N[C@@H](CC(C)C)c2ccccc2N2CCCCC2)ccc1C(=O)O` [Repaglinide]: the “Hyperglycemia Efficacy Index (HEI)” value in data set [1] was “HEI 0.62”. The “Hypo Risk Index (HRI)” value in data set [2] (1.5-12 mg) is given as “HRI 2 - medium”. Dulaglutide: the “Hypo Risk Index (HRI)” value in data set [2] (0.75 mg) and in data set [2] (1.5 mg) was “HRI 1 - low” in each case. For Exenatide LAR, in data set [1], the “Hyperglycemia Efficacy Index (HEI)” value is listed as “HEI 0.76”. Besides, the “Hypo Risk Index (HRI)” value in data set [2] (2 mg) was “HRI 1 - low”.
